Experimental findings from paper PMC13077603, “Fluorine‐18‐Labeled Nucleotide Analogs Targeting Ecto‐5'‐Nucleotidase (CD73) for Positron Emission Tomography Imaging of Solid Tumors” (Angewandte Chemie (International Ed. in English), 2026) are described below.

Data set [1] deals with T1, CD73/AMPase activity in human breast tumor tissues (Homo sapiens, UniProt P21589).
T1 construct: cryosections of breast tumor samples as well as sentinel lymph node samples were investigated; from tissue; host or cells: primary breast tumors and sentinel lymph nodes of two patients, 6 µm cryosections
T1 sequence (P21589 27-574): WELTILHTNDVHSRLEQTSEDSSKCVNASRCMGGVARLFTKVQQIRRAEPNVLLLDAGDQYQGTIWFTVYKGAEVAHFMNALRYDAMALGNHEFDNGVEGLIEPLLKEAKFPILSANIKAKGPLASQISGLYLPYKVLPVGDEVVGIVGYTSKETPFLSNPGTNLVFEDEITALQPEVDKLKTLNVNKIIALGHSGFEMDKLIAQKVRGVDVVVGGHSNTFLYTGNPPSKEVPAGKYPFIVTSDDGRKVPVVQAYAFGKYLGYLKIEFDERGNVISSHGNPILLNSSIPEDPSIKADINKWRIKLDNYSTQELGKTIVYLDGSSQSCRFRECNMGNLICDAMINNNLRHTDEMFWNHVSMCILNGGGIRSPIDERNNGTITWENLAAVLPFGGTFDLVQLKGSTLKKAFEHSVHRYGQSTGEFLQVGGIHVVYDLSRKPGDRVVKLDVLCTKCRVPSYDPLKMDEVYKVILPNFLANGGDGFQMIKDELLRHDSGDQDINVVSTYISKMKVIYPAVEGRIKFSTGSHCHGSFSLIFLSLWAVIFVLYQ
As to the kind of experiment: In situ enzyme histochemistry of AMPase activity in breast tumor cryosections. The data set is classed as biochemical. As to conditions: 10–50 nM inhibitor, 400 µM AMP, tissue cryosections. How it is done: Subsequent analysis of CD73‐mediated AMPase activities was performed by incubating tissue cryosections with AMP and CD73 inhibitors at different concentrations. Figure 2 depicts representative images of AMP‐specific staining in breast tumors from patient X (panel A) and patient Y (panel B), determined in the absence (control) and in the presence of 10 nM of the potent CD73 inhibitor 1.
FIGURE 3 Effects of CD73 inhibitors on AMPase activity in human breast tumor tissues. The effects of CD73 inhibitors on AMPase activity was determined in situ by incubating primary breast tumor samples from patient X (A) and patient Y (B) with 400 µM AMP and 1.5 mM Pb(NO3)2 in the absence (control) and the presence of the indicated concentrations of CD73 inhibitor. (C). Mean pixel intensities of brown staining due to the hydrolysis of AMP leading to Pb3(PO4)2 precipitation were quantified in the selected regions and expressed as arbitrary units (AU) (mean ± SEM; n = 2). Scale bars: 2 mm (A, B), and 500 µm (A, right insets).
For the localization of AMPase activities in human tumors, the lead nitrate-based enzyme histochemistry was employed. […] AMPase activity was determined by measuring AMP-specific brown staining intensities from the images using QuPath v.0.3.0 software. […] The average DAB intensity levels were measured as described earlier.^[39^] […]

Data set [2] can be described thus: logD7.4 determination of radiotracers (PBS/octan-1-ol). Conditions: octan-1-ol/PBS; PBS pH 7.4 / octan-1-ol, radiotracer. The data set is classed as physicochemical. The method, then: The logD 7.4 values of both radiotracers were determined using a previously described method based on their distribution between phosphate‐buffered saline (PBS) and octan‐1‐ol.
Triazole radiotracers (~400 kBq) in PBS buffer (10 µL, pH 7.4) were added to PBS buffer (590 µL, pH 7.4) and octan-1-ol (600 µL). The two-layer mixture was shaken for 3 min on a vortex mixer at r.t. and centrifuged (200 g) for 5 min. The main part of the octanol layer (400 µL) was carefully collected and transferred to a new tube containing PBS buffer (400 µL, pH 7.4). The two-layer mixture was shaken again for 10 min and centrifuged for 5 min (200 g). Three samples were prepared, and two aliquots (á 100 µL) of both layers were measured in a gamma-counter 2480 Wizard2 (Perkin-Elmer, Waltham, USA). The partition coefficient was determined by dividing cpm (octanol) by cpm (PBS) and indicated as logD7.4 (exp.).

Data set [3] addresses Human serum albumin (HSA) (Homo sapiens, UniProt P02768). As to the kind of experiment: Plasma protein binding (human serum albumin binding). The data set is classed as in vitro ADME. Conditions: human serum albumin (HSA), read-out: Plasma protein binding (PPB) (converted). How it is done:
Human serum albumin (HSA) binding.
Plasma protein binding was determined following previously published procedure.^[38^]

Data set [4] concerns the target T2, Soluble recombinant human CD73 (Homo sapiens, UniProt P21589).
T2 sequence (P21589 27-549 limits assumed): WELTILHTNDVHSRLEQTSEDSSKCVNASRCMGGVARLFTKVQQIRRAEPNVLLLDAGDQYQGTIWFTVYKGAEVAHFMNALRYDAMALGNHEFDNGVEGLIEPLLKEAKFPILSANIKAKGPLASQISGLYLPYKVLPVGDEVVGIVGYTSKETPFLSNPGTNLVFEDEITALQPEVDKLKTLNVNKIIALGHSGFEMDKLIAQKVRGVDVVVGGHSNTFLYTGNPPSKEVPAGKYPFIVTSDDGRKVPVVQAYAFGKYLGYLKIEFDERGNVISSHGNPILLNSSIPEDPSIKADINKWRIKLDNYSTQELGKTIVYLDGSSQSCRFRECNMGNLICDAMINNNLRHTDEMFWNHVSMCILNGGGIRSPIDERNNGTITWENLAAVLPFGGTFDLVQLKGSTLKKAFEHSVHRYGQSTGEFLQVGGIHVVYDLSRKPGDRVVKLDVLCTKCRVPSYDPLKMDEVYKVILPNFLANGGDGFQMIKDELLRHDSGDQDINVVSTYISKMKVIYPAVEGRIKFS
Nature of the data set: CD73 enzyme inhibition assay, soluble recombinant human CD73. As to conditions: soluble recombinant human CD73, Km 17 µM, substrate AMP (5 µM). The data set is classed as biochemical. How it is done:
Both compounds were evaluated for metabolic stability in mouse liver microsomes (MLM) and plasma protein binding (PPB) (Table 1).
The CD73 enzyme inhibition assay of recombinant soluble CD73, membrane-bound human CD73, soluble rat CD73 and mouse CD73 was performed as previously described.^[16,35^]

Human serum albumin (HSA), sequence (P02768 25-609): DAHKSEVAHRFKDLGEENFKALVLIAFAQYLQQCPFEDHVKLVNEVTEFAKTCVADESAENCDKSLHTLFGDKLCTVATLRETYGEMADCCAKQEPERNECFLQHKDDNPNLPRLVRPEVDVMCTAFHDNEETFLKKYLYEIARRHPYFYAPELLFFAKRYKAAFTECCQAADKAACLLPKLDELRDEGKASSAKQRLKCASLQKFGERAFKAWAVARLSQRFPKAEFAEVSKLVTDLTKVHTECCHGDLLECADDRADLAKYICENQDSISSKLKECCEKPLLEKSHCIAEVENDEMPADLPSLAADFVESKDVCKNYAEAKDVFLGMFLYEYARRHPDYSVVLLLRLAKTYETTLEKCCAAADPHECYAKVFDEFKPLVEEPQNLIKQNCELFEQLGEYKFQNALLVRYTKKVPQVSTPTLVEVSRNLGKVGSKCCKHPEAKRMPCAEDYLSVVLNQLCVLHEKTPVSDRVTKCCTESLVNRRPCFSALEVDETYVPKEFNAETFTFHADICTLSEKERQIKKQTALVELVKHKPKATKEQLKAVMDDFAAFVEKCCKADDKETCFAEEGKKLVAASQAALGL

Consider `Cn1c(=O)n([C@@H]2O[C@H](COP(=O)(O)CP(=O)(O)O)[C@@H](O)[C@H]2O)cc/c1=N/OCc1ccc(-c2cn(CCF)nn2)cc1` [compound 2, [((2R,3S,4R,5R)-5-{4-[({4-[1-(2-Fluoroethyl)-1H-1,2,3-triazol-4-yl]benzyl}oxy)-imino]-3-methyl-2-oxo-3,4-dihydropyrimidin-1(2H)-yl}-3,4-dihydroxytetrahydro-furan-2-yl)methoxy]-(phosphonomethyl)phosphonic acid], for which the “Reduction of CD73/AMPase activity in the breast TME” value in data set [1] was 60%–70. Besides, the logD – broadly, the decadic logarithm of the distribution of all forms, ionised or not, between an organic phase and buffer at a given pH – in data set [2] turned out to be 0.74 ± 0.3. Besides, in data set [3], the fraction unbound was 0.34. Besides, in data set [4], the Ki – broadly, a dissociation constant, usually derived from enzyme kinetics or from competition with a known ligand – is 0.664 nM.
